Measurements as given in patent publication US20260022142A1, “MACROCYCLIC IMMUNOMODULATORS” (Bristol-Myers Squibb Company, priority 2022, published 2026).
Bridge positions count the residues as written; N and C are the ends. Square brackets hold non-standard residues; d marks the D form. Peptide text beside a SMILES is read from it. * marks the point of attachment. Phe(4-COOH) = N[C@@H](Cc1ccc(C(=O)O)cc1)C(=O)O; Bip = N[C@@H](Cc1ccc(-c2ccccc2)cc1)C(=O)O; NH(CH2)14COOH = O=C(O)CCCCCCCCCCCCCCN*; Phe(3-Me) = Cc1cccc(C[C@H](N)C(=O)O)c1; NH(CH2)12COOH = O=C(O)CCCCCCCCCCCCN*; Val(3-OH) = CC(C)(O)[C@H](N)C(=O)O; 4Pal = N[C@@H](Cc1ccncc1)C(=O)O; Cha = N[C@@H](CC1CCCCC1)C(=O)O; Carboxymethyl = O=C(O)C*; Orn = NCCC[C@H](N)C(=O)O; Aun = NCCCCCCCCCCC(=O)O; Dab = NCC[C@H](N)C(=O)O; Nva = CCC[C@H](N)C(=O)O; Abu = CC[C@H](N)C(=O)O; AEEA = NCCOCCOCC(=O)O

Target: T1, PD-1/PD-L1 interaction (PE-labeled human PD-L1-Ig binding to Jurkat cell line over-expressing human PD-1) (Homo sapiens, UniProt Q15116)
T1 construct: expressed in transfected cells; host or cells: Jurkat
T1 sequence (Q15116 25-288): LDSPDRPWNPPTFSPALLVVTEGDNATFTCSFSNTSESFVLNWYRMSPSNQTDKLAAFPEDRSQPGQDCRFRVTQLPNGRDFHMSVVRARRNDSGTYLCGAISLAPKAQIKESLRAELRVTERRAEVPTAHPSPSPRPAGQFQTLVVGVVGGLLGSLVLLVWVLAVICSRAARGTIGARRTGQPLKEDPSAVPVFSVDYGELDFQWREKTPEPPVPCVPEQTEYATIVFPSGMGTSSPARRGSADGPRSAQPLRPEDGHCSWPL
Test: Jurkat-PD-1 Cell Binding High-Content Screening Assay (CBA)
Assay type: cell-based
Conditions: Jurkat cell line over-expressing human PD-1; PE-labeled PD-L1-Ig 20 nM final; read-out: Jurkat hPD1-PDL1 IC50
Method in brief: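 Jurkat cells over-expressing human PD-1 (8×10^3 per well, DMEM/10% FCS) preincubated with compound 2 h at 37° C, then PE-labeled human PD-L1-Ig (20 nM final) added for 1 h. Cells fixed with paraformaldehyde, Hoechst-stained, and bound fluorescence quantified by high-content imaging.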

| SMILES | IC50 |
| --- | --- |
| Cc1cccc(C[C@@H]2NC(=O)[C@H](CC(=O)O)NC(=O)[C@H](Cc3ccc(OCC(=O)O)cc3)NC(=O)[C@H](CCN)NC(=O)CSC[C@@H](C(=O)N[C@@H](CCN)C(=O)NCCOCCOCC(=O)NCCOCCOCC(=O)NCCCCCCCCCCCCC(=O)O)NC(=O)[C@H](CO)NC(=O)[C@H](C(C)(C)O)NC(=O)[C@H](CC3CCCCC3)NC(=O)[C@H](Cc3c[nH]cn3)NC(=O)[C@@H](CC(C)C)NC(=O)[C@H](CCCN)NC(=O)[C@H](Cc3ccc(OCC(=O)O)cc3)NC(=O)[C@H](Cc3ccc(-c4ccccc4)cc3)NC(=O)[C@H](Cc3ccc(OCC(=O)O)cc3)NC2=O)c1 [Compound 2873] ({CH2CO}-[Dab]Y(Carboxymethyl)D[Phe(3-Me)]Y(Carboxymethyl)[Bip]Y(Carboxymethyl)[Orn][dL]H[Cha][Val(3-OH)]SC[Dab][AEEA][AEEA]-{NH(CH2)12COOH}; thioether N-14) | 34.5 nM |
| Cc1cccc(C[C@@H]2NC(=O)[C@H](CC(=O)O)NC(=O)[C@H](Cc3ccc(OCC(=O)O)cc3)NC(=O)[C@H](CCN)NC(=O)CSC[C@@H](C(=O)N[C@@H](CCN)C(=O)NCCOCCOCC(=O)NCCCCCCCCCCCCC(=O)O)NC(=O)[C@H](CO)NC(=O)[C@H](C(C)(C)O)NC(=O)[C@H](CC3CCCCC3)NC(=O)[C@H](Cc3c[nH]cn3)NC(=O)[C@@H](CC(C)C)NC(=O)[C@H](CCCN)NC(=O)[C@H](Cc3ccc(OCC(=O)O)cc3)NC(=O)[C@H](Cc3ccc(-c4ccccc4)cc3)NC(=O)[C@H](Cc3ccc(OCC(=O)O)cc3)NC2=O)c1 [Compound 2875] ({CH2CO}-[Dab]Y(Carboxymethyl)D[Phe(3-Me)]Y(Carboxymethyl)[Bip]Y(Carboxymethyl)[Orn][dL]H[Cha][Val(3-OH)]SC[Dab][AEEA]-{NH(CH2)12COOH}; thioether N-14) | 8.3 nM |
| Cc1cccc(C[C@@H]2NC(=O)[C@H](CC(=O)O)NC(=O)[C@H](Cc3ccc(OCC(=O)O)cc3)NC(=O)[C@H](CCN)NC(=O)CSC[C@@H](C(=O)N[C@@H](CCN)C(=O)NCCOCCOCC(=O)NCCCCCCCCCCCCCCC(=O)O)NC(=O)[C@H](CO)NC(=O)[C@H](C(C)(C)O)NC(=O)[C@H](CC3CCCCC3)NC(=O)[C@H](Cc3c[nH]cn3)NC(=O)[C@@H](CC(C)C)NC(=O)[C@H](CCCN)NC(=O)[C@H](Cc3ccc(OCC(=O)O)cc3)NC(=O)[C@H](Cc3ccc(-c4ccccc4)cc3)NC(=O)[C@H](Cc3ccc(OCC(=O)O)cc3)NC2=O)c1 [Compound 2876] ({CH2CO}-[Dab]Y(Carboxymethyl)D[Phe(3-Me)]Y(Carboxymethyl)[Bip]Y(Carboxymethyl)[Orn][dL]H[Cha][Val(3-OH)]SC[Dab][AEEA]-{NH(CH2)14COOH}; thioether N-14) | 212 nM |
| CCC[C@@H]1NC(=O)CSC[C@@H](C(=O)N[C@@H](CCN)C(=O)NCCOCCOCC(=O)NCCCCCCCCCCC(=O)O)NC(=O)[C@H](CO)NC(=O)[C@H](C(C)(C)O)NC(=O)[C@H](CC2CCCCC2)NC(=O)[C@H](CCN)NC(=O)[C@@H](CC(C)C)NC(=O)[C@H](CCCN)NC(=O)[C@H](Cc2ccc(C(=O)O)cc2)NC(=O)[C@H](Cc2ccc(-c3ccccc3)cc2)NC(=O)[C@H](Cc2ccc(C(=O)O)cc2)NC(=O)[C@H](Cc2cccc(C)c2)NC(=O)[C@H](CC(=O)O)NC(=O)[C@H](Cc2ccc(OCC(=O)O)cc2)NC1=O [Compound 2877] ({CH2CO}-[Nva]Y(Carboxymethyl)D[Phe(3-Me)][Phe(4-COOH)][Bip][Phe(4-COOH)][Orn][dL][Dab][Cha][Val(3-OH)]SC[Dab][AEEA][Aun]-OH; thioether N-14) | 1.5 nM |
| CC[C@@H]1NC(=O)CSC[C@@H](C(=O)N[C@@H](CCN)C(=O)NCCOCCOCC(=O)NCCCCCCCCCCC(=O)O)NC(=O)[C@H](CO)NC(=O)[C@H](C(C)(C)O)NC(=O)[C@H](CC2CCCCC2)NC(=O)[C@H](CCN)NC(=O)[C@@H](CC(C)C)NC(=O)[C@H](CCCN)NC(=O)[C@H](Cc2ccc(OCC(=O)O)cc2)NC(=O)[C@H](Cc2ccc(-c3ccccc3)cc2)NC(=O)[C@H](Cc2ccc(OCC(=O)O)cc2)NC(=O)[C@H](Cc2cccc(C)c2)NC(=O)[C@H](CC(=O)O)NC(=O)[C@H](Cc2ccc(OCC(=O)O)cc2)NC1=O [Compound 2879] ({CH2CO}-[Abu]Y(Carboxymethyl)D[Phe(3-Me)]Y(Carboxymethyl)[Bip]Y(Carboxymethyl)[Orn][dL][Dab][Cha][Val(3-OH)]SC[Dab][AEEA][Aun]-OH; thioether N-14) | 2.7 nM |
| CC[C@@H]1NC(=O)CSC[C@@H](C(=O)N[C@@H](CCN)C(=O)NCCOCCOCC(=O)NCCOCCOCC(=O)NCCCCCCCCCCC(=O)O)NC(=O)[C@H](CO)NC(=O)[C@H](C(C)(C)O)NC(=O)[C@H](CC2CCCCC2)NC(=O)[C@H](CCN)NC(=O)[C@@H](CC(C)C)NC(=O)[C@H](CCCN)NC(=O)[C@H](Cc2ccc(C(=O)O)cc2)NC(=O)[C@H](Cc2ccc(-c3ccccc3)cc2)NC(=O)[C@H](Cc2ccc(C(=O)O)cc2)NC(=O)[C@H](Cc2cccc(C)c2)NC(=O)[C@H](CC(=O)O)NC(=O)[C@H](Cc2ccc(OCC(=O)O)cc2)NC1=O [Compound 2882] ({CH2CO}-[Abu]Y(Carboxymethyl)D[Phe(3-Me)][Phe(4-COOH)][Bip][Phe(4-COOH)][Orn][dL][Dab][Cha][Val(3-OH)]SC[Dab][AEEA][AEEA][Aun]-OH; thioether N-14) | 1.6 nM |
| CCC[C@@H]1NC(=O)CSC[C@@H](C(=O)N[C@@H](CCN)C(=O)NCCOCCOCC(=O)NCCOCCOCC(=O)NCCCCCCCCCCCCC(=O)O)NC(=O)[C@H](CO)NC(=O)[C@H](C(C)(C)O)NC(=O)[C@H](CC2CCCCC2)NC(=O)[C@H](CCN)NC(=O)[C@@H](CC(C)C)NC(=O)[C@H](CCCN)NC(=O)[C@H](Cc2ccc(C(=O)O)cc2)NC(=O)[C@H](Cc2ccc(-c3ccccc3)cc2)NC(=O)[C@H](Cc2ccc(C(=O)O)cc2)NC(=O)[C@H](Cc2cccc(C)c2)NC(=O)[C@H](CC(=O)O)NC(=O)[C@H](Cc2ccc(OCC(=O)O)cc2)NC1=O [Compound 2883] ({CH2CO}-[Nva]Y(Carboxymethyl)D[Phe(3-Me)][Phe(4-COOH)][Bip][Phe(4-COOH)][Orn][dL][Dab][Cha][Val(3-OH)]SC[Dab][AEEA][AEEA]-{NH(CH2)12COOH}; thioether N-14) | 4.9 nM |
| CCC[C@@H]1NC(=O)CSC[C@@H](C(=O)N[C@@H](CCN)C(=O)NCCOCCOCC(=O)NCCOCCOCC(=O)NCCCCCCCCCCCCCCC(=O)O)NC(=O)[C@H](CO)NC(=O)[C@H](C(C)(C)O)NC(=O)[C@H](CC2CCCCC2)NC(=O)[C@H](CCN)NC(=O)[C@@H](CC(C)C)NC(=O)[C@H](CCCN)NC(=O)[C@H](Cc2ccc(C(=O)O)cc2)NC(=O)[C@H](Cc2ccc(-c3ccccc3)cc2)NC(=O)[C@H](Cc2ccc(C(=O)O)cc2)NC(=O)[C@H](Cc2cccc(C)c2)NC(=O)[C@H](CC(=O)O)NC(=O)[C@H](Cc2ccc(OCC(=O)O)cc2)NC1=O [Compound 2884] ({CH2CO}-[Nva]Y(Carboxymethyl)D[Phe(3-Me)][Phe(4-COOH)][Bip][Phe(4-COOH)][Orn][dL][Dab][Cha][Val(3-OH)]SC[Dab][AEEA][AEEA]-{NH(CH2)14COOH}; thioether N-14) | 133 nM |
| COc1ccc(C[C@@H]2NC(=O)[C@H](Cc3cccc(C)c3)NC(=O)[C@H](CC(=O)O)NC(=O)[C@H](Cc3ccc(C(=O)O)cc3)NC(=O)[C@H](Cc3ccncc3)NC(=O)CSC[C@@H](C(=O)N[C@@H](CCN)C(=O)NCCOCCOCC(=O)NCCOCCOCC(=O)NCCCCCCCCCCCCCCC(=O)O)NC(=O)[C@H](CO)NC(=O)[C@H](C(C)(C)O)NC(=O)[C@H](CC3CCCCC3)NC(=O)[C@H](CCN)NC(=O)[C@@H](CC(C)C)NC(=O)[C@H](CCCN)NC(=O)[C@H](Cc3ccc(C(=O)O)cc3)NC(=O)[C@H](Cc3ccc(-c4ccccc4)cc3)NC2=O)cc1 [Compound 2885] ({CH2CO}-[4Pal][Phe(4-COOH)]D[Phe(3-Me)]Y(Me)[Bip][Phe(4-COOH)][Orn][dL][Dab][Cha][Val(3-OH)]SC[Dab][AEEA][AEEA]-{NH(CH2)14COOH}; thioether N-14) | 2690 nM |
| Cc1cccc(C[C@@H]2NC(=O)[C@H](CC(=O)O)NC(=O)[C@H](Cc3ccc(C(=O)O)cc3)NC(=O)[C@H](CCN)NC(=O)CSC[C@@H](C(=O)N[C@@H](CCN)C(=O)NCCOCCOCC(=O)NCCOCCOCC(=O)NCCCCCCCCCCCCC(=O)O)NC(=O)[C@H](Cc3c[nH]cn3)NC(=O)[C@H](C(C)(C)O)NC(=O)[C@H](CC3CCCCC3)NC(=O)[C@H](CCN)NC(=O)[C@@H](CC(C)C)NC(=O)[C@H](CCCN)NC(=O)[C@H](Cc3ccc(C(=O)O)cc3)NC(=O)[C@H](Cc3ccc(-c4ccccc4)cc3)NC(=O)[C@H](Cc3ccc(C(=O)O)cc3)NC2=O)c1 [Compound 2886] ({CH2CO}-[Dab][Phe(4-COOH)]D[Phe(3-Me)][Phe(4-COOH)][Bip][Phe(4-COOH)][Orn][dL][Dab][Cha][Val(3-OH)]HC[Dab][AEEA][AEEA]-{NH(CH2)12COOH}; thioether N-14) | 10 nM |
| Cc1cccc(C[C@@H]2NC(=O)[C@H](CC(=O)O)NC(=O)[C@H](Cc3ccc(OCC(=O)O)cc3)NC(=O)[C@H](CCN)NC(=O)CSC[C@@H](C(=O)N[C@@H](CCN)C(=O)NCCOCCOCC(=O)NCCOCCOCC(=O)NCCCCCCCCCCCCC(=O)O)NC(=O)[C@H](CO)NC(=O)[C@H](C(C)(C)O)NC(=O)[C@H](CC3CCCCC3)NC(=O)[C@H](Cc3c[nH]cn3)NC(=O)[C@@H](CC(C)C)NC(=O)[C@H](CCCN)NC(=O)[C@H](Cc3ccc(C(=O)O)cc3)NC(=O)[C@H](Cc3ccc(-c4ccccc4)cc3)NC(=O)[C@H](Cc3ccc(C(=O)O)cc3)NC2=O)c1 [Compound 2887] ({CH2CO}-[Dab]Y(Carboxymethyl)D[Phe(3-Me)][Phe(4-COOH)][Bip][Phe(4-COOH)][Orn][dL]H[Cha][Val(3-OH)]SC[Dab][AEEA][AEEA]-{NH(CH2)12COOH}; thioether N-14) | 18.4 nM |
